Experimental data taken from article PMC6691063, “Increased Body Weight and Fat Mass After Subchronic GIP Receptor Antagonist, but Not GLP-2 Receptor Antagonist, Administration in Rats” (Frontiers in Endocrinology, 2019).
Read-outs that look alike come from different tables or passages of the source.

How the values were obtained:
Male Wistar rats [1] = assay: Subchronic treatment in rats: food intake, body weight, body composition (EchoMRI); format: in vivo, rat; conditions: vs vehicle, n = 6/group; for Food intake: measured twice a week, cage means; for Body weight: monitored weekly
Method: All experiments were in accordance with internationally accepted principles for the care and use of laboratory animals and in compliance with an animal experiment license (2013/15–2934-00833) issued (to JH) by the Danish Committee for Animal Research. Male Wistar rats (Taconic, Denmark) weighing ~200 g at the time of arrival were housed two in each cage at the Panum Institute, Copenhagen, Denmark. They were kept in temperature- (21°C) and humidity-controlled (55%) rooms with light/dark cycles of 12 h with free access to standard rat chow and water.
(§1) After 1 week of acclimatization, animals were allocated into five groups (n = 6/each group). Rats received either vehicle, rat GIP(3-30)NH2, (25 nmol/kg b.w.), human (Pro3)GIP (25 nmol/kg b.w.), human GLP-2(3-33) (25 nmol/kg b.w.), or human GLP-2(11-33) (25 nmol/kg b.w.) sc daily at 6 PM for 3 weeks. […] To study bone resorption, blood was collected from the sublingual vein of rats at −2, −1, 0, 6, 10, 14, 17, 21 days of treatment. The day after the last injection, the rats were euthanized and blood was collected from the vena cava for further biochemical analysis. The liver was excised and samples were snap-frozen in liquid nitrogen and stored at −80°C until assayed.
Food intake was measured twice a week during the study period at 10 AM by subtracting the leftover weights from the initial weights and calculated as cage means (g/rat). Body weight was monitored weekly at 10 AM. Measures of body lean and fat mass were determined in live, conscious animals using quantitative magnetic resonance spectroscopy (EchoMRI-700TM; Echo MRI).

Male Wistar rats [2] = assay: Plasma and intrahepatic triglycerides after subchronic treatment; format: in vivo, rat; conditions: 25 nmol/kg b.w. sc once daily for 3 weeks, vs vehicle, n = 6/group; for Intrahepatic triglyceride content: liver lipid extract; for Plasma triglyceride levels: terminal blood
From the text: as §1
(§2) To obtain serum, blood samples were allowed to clot for 30 min and were then centrifuged (10 min at 3,000 × g) and stored at −20°C until analysis. To obtain plasma, blood was collected into chilled tubes containing in final concentrations EDTA 3.9 mmol/l and valine-pyrolidide 0.01 mmol/l (a DPP-4 inhibitor, a gift from Novo Nordisk A/S, Bagsvaerd, Denmark). The samples were centrifuged (10 min at 3,000 × g, 4°C) and plasma was kept at −80°C until analysis.
Total liver lipids were extracted as previously described ([31]). The extracts were evaporated under vacuum in a rotary evaporator and re-suspended in 1 ml of isopropanol for quantification of triglycerides. Plasma and intrahepatic triglycerides were assessed using triglyceride determination kit (Sigma-Aldrich, Saint Louis, USA). All samples were analyzed in duplicates in the same assay to prevent inter assay variation.

Male Wistar rats [3] = assay: Plasma lipoprotein lipase (LPL) ELISA after subchronic treatment; format: in vivo, rat; conditions: 25 nmol/kg b.w. sc once daily for 3 weeks, vs vehicle, n = 6/group
From the text: as §1, with “assayed. […]” for “assayed.”
Bone resorption was assessed by measurements of degradation product from C-terminal cross linked telopeptides of type 1 collagen (CTX, RatLaps; IDS Immunodiagnostic Systems GmbH, Frankfurt am Main, Germany). CTX values were expressed as percent of the mean of the baseline values (days−2,−1, 0) of the individual animal. […] Resistin was measured using rat resistin enzyme immunoassay kit (Bertinpharma, Montigny le Bretonneux, France). […] Leptin was measured using rat leptin enzyme immunoassay kit (Mediagnost, Reutlingen, Germany). […] Adiponectin was measured using rat adiponectin ELISA kit (Millipore, St. Charles, Missouri, USA). […] LPL was measured using lipoprotein lipase ELISA kit (Cell Biolabs, San Diego, CA, USA). […]

Male Wistar rats [4] = assay: Plasma adipokines (leptin, resistin, adiponectin) after subchronic treatment; format: in vivo, rat; conditions: 25 nmol/kg b.w. sc once daily for 3 weeks, vs vehicle, n = 6/group
From the text: as §1, §2
(§3) Bone resorption was assessed by measurements of degradation product from C-terminal cross linked telopeptides of type 1 collagen (CTX, RatLaps; IDS Immunodiagnostic Systems GmbH, Frankfurt am Main, Germany). CTX values were expressed as percent of the mean of the baseline values (days−2,−1, 0) of the individual animal. The intra- and interassay coefficient of variation (CV's) of the assay is in the range 6–10 and 10–15%, respectively. Resistin was measured using rat resistin enzyme immunoassay kit (Bertinpharma, Montigny le Bretonneux, France). The intra-assay CV is <5%, the inter-assay <10%. Leptin was measured using rat leptin enzyme immunoassay kit (Mediagnost, Reutlingen, Germany). The intra- and inter-assay CV are <5%. Adiponectin was measured using rat adiponectin ELISA kit (Millipore, St. Charles, Missouri, USA). The intra- and inter-assay CV are <2 and <9%, respectively. LPL was measured using lipoprotein lipase ELISA kit (Cell Biolabs, San Diego, CA, USA). The intra- and inter-assay CV are <4 and <8%, respectively. All samples were analyzed in duplicates in the same assay to prevent inter assay variation.

Male Wistar rats [5] = assay: Bone resorption: serum CTX (RatLaps) during subchronic treatment; format: in vivo, rat; conditions: 25 nmol/kg b.w. sc once daily for 3 weeks, days 0-21, percent of individual baseline, vs vehicle, n = 6/group
From the text: as §1, §2, §3

[6] = Pharmacokinetic study of GIP(3-30)NH2, plasma radioimmunoassay; format: in vivo, rat
Method: Samples were taken at 0, 5, 10, 20, 30, and 45 min post-injection of GIP(3-30)NH2. Blood was immediately aliquoted into tubes containing final concentrations of EDTA 3.9 mmol/l. Samples were centrifuged (3,000 × g for 10 min at 4°C) and the plasma stored at −80°C until analysis. GIP(3-30)NH2 concentrations were measured in plasma with an in-house-developed radioimmunoassay ([50]) using a polyclonal antibody (code no. 95236) raised in rabbits against porcine GIP(1-30)NH2. As standard we used rat GIP(3-30)NH2 and the tracer was ^125I-labeled human GIP(3-30NH2).

[7] = cited from earlier work
From the text: Glucose-dependent insulinotropic peptide (GIP) and glucagon-like peptide-2 (GLP-2) are peptide hormones released from K and L cells of the gastrointestinal tract, respectively ([1], [2]). Both exert their functions through activation of specific G protein-coupled receptors ([3], [4]). The GIP receptor (GIPR) is expressed on different cell type including pancreatic cells, adipocytes ([5]), osteoblasts ([6]), and osteoclasts ([7]). The GLP-2 receptor (GLP-2R) is widely expressed in gastrointestinal tract and central nervous system ([8]–[10]) but fewer are found in the liver, vagal afferents, and ...

rat GIPR = conditions: acts as a partial agonist at the rat GIPR, elsewhere ref 22, 25; cited from earlier work
[8] = 25 nmol/kg b.w. sc once daily for 3 weeks

Row | Compound | Food intake (Male Wistar rats [1]; [8]) | Intrahepatic triglyceride content (Male Wistar rats [2]) | Plasma triglyceride levels (Male Wistar rats [2]) | Plasma lipoprotein lipase (LPL) levels (Male Wistar rats [3]) | Serum CTX levels (bone resorption) (Male Wistar rats [5]) | Body weight (Male Wistar rats [1]; [8]) | also measured
1 | CC[C@H](C)[C@H](NC(=O)[C@H](CO)NC(=O)[C@H](Cc1ccc(O)cc1)NC(=O)[C@H](CC(=O)O)NC(=O)[C@H](CO)NC(=O)[C@@H](NC(=O)[C@H](Cc1ccccc1)NC(=O)[C@@H](NC(=O)CNC(=O)[C@@H](N)CCC(=O)O)[C@@H](C)O)[C@@H](C)CC)C(=O)N[C@@H](C)C(=O)N[C@@H](CCSC)C(=O)N[C@@H](CC(=O)O)C(=O)N[C@@H](CCCCN)C(=O)N[C@H](C(=O)N[C@@H](CCCNC(=N)N)C(=O)N[C@@H](CCC(N)=O)C(=O)N[C@@H](CCC(N)=O)C(=O)N[C@@H](CC(=O)O)C(=O)N[C@@H](Cc1ccccc1)C(=O)N[C@H](C(=O)N[C@@H](CC(N)=O)C(=O)N[C@@H](Cc1c[nH]c2ccccc12)C(=O)N[C@@H](CC(C)C)C(=O)N[C@@H](CC(C)C)C(=O)N[C@@H](C)C(=O)N[C@@H](CCC(N)=O)C(=O)N[C@@H](CCCCN)C(N)=O)C(C)C)[C@@H](C)CC [GIP(3-30)NH2] | no measurable effect | failed to change | increased | significantly enhanced | did not affect |  | Lean mass (Male Wistar rats [1]; 25 nmol/kg b.w. sc once daily for 3 weeks, NMR spectroscopy (EchoMRI)): no difference; Body fat mass (Male Wistar rats [1]; 25 nmol/kg b.w. sc once daily for 3 weeks, end of treatment, NMR spectroscopy (EchoMRI)): increased; Body weight gain, first 2 weeks of treatment (Male Wistar rats [1]; 25 nmol/kg b.w. sc once daily): did not show differences; Body weight gain, third week of treatment (Male Wistar rats [1]; 25 nmol/kg b.w. sc once daily, p < 0.05): significantly increased; Plasma adiponectin (Male Wistar rats [4]; ELISA): no significant effect; Plasma leptin (Male Wistar rats [4]; enzyme immunoassay): increased; Plasma resistin (Male Wistar rats [4]; enzyme immunoassay): no significant effect; Cmax ([6]; rat plasma, after administration, in-house radioimmunoassay, data not shown, read-out: Maximum plasma concentration): ~0.017 µM; Tmax ([6]; rat plasma, in-house radioimmunoassay, data not shown, read-out: Time of maximum plasma concentration after administration (converted)): 10 min; Half-life ([6]; rat plasma, in-house radioimmunoassay, read-out: Half-life after injection): ~20 min; Duration of exposure for the antagonist ([6]; rat, concluded from peak level and half-life): ≤ 2 h
2 | Glucose-dependent insulinotropic peptide [GIP] |  |  |  |  |  |  | Half-life ([7]; humans, DPP-4 mediated degradation): about 7 min
3 | GLP-2(11-33): Synthetic human GLP-2(11-33), GLP-2R antagonist, from Caslo laboratory (NTILDNLAARDFINWLIQTKITD; Glucagon-like peptide 2; UniProt P01275 156-178, looked up, fragment) | did not modify |  |  |  | did not change | did not modify | 
4 | (Pro3)GIP | not associated with changes | did not modify | did not modify | did not modify | did not affect | not associated with changes | Body composition (total fat and lean mass) (Male Wistar rats [1]; 25 nmol/kg b.w. sc once daily for 3 weeks, NMR (EchoMRI)): not associated with changes; Plasma levels of adipokines (Male Wistar rats [4]; leptin, resistin, adiponectin (Figure 2)): did not modify; Ki (rat GIPR): 0.019 µM
5 | GLP-2(3-33): Synthetic human GLP-2(3-33), GLP-2R antagonist, from Caslo laboratory (DGSFSDEMNTILDNLAARDFINWLIQTKITD; Glucagon-like peptide 2; UniProt P01275 148-178, looked up, fragment) | did not modify |  |  |  | did not change | did not modify | 
6 | glucagon-like peptide-2 [GLP-2] |  |  |  |  |  |  | Half-life ([7]; human, in vivo): about 7 min
